Measurements from patent publication US20110015119A1, “NOVEL SEMI-SYNTHETIC GLYCOPEPTIDES AS ANTIBACTERIAL AGENTS” (LEAD THERAPEUTICS, INC., priority 2009, published 2011).
In brackets after ≈: the same amount, converted by molar mass. Read-outs that look alike come from different tables or passages of the source.

Experiments:
Assay type in all cases: cell-based
[1] = test system: Staphylococcus aureus 100 (ATCC 29213); test: MIC by broth microdilution, SA 100
Experimental: (§1) Antibacterial activity in vitro is investigated by broth microdilution method in Meuller-Hinton broth as recommended by NCCLS. All strains tested are clinical isolates either sensitive or resistant to natural glycopeptides. MIC values were determined using the CLSI-recommended broth microdilution procedure (Clinical and Laboratory Standards Institute, Methods for Dilution Antimicrobial Susceptibility Tests for Bacteria That Grow Aerobically; Approved Standard-Seventh Edition.). Automated liquid handlers (Multidrop 384, Labsystems, Helsinki, Finland; Biomek 2000 and Multimek 96, Beckman Coulter, Fullerton Calif.) were used to conduct serial dilutions and liquid transfers. The MIC value for vancomycin is given for comparison. The abbreviations for organisms tested are as follow: SA 100—Staphylococcus aureus 100 (ATCC 29213); SA 757—Staphylococcus aureus 757 (MRSA); SA 2012—Staphylococcus aureus 2012 (VISA); SE 835—Staphylococcus epidermidis 835; SE 831—Staphylococcus epidermidis 831 (MRSE); EFc 101—Enterococcus faecalis 101 (ATCC 29212); EFc 848—Enterococcus faecalis 848 (VRE, Van A); EFcm 800—Enterococcus faecium 800; EFcm 752—Enterococcus faecium 752 (VRE, Van A); SPNE 1195—Streptococcus pneumoniae 1195 (ATCC 49619); SPY 712—Streptococcus pyogenes 712.

[2] = test system: Staphylococcus aureus 757 (MRSA); test: MIC by broth microdilution, SA 757; details: read-out: MIC SA 757
Experimental: as §1

[3] = test system: Staphylococcus aureus 2012 (VISA); test: MIC by broth microdilution, SA 2012; details: class symbols
Experimental: as §1

[4] = test system: Staphylococcus epidermidis 835; test: MIC by broth microdilution, SE 835
Experimental: as §1

[5] = test system: Staphylococcus epidermidis 831 (MRSE); test: MIC by broth microdilution, SE 831; details: read-out: MIC SE 831
Experimental: as §1

[6] = test system: Enterococcus faecalis 101 (ATCC 29212); test: MIC by broth microdilution, EFc 101; details: class symbols
Experimental: as §1

[7] = test system: Enterococcus faecalis 848 (VRE, Van A); test: MIC by broth microdilution, EFc 848; details: class symbols
Experimental: as §1

[8] = test system: Enterococcus faecium 800; test: MIC by broth microdilution, EFcm 800
Experimental: as §1

[9] = test system: Enterococcus faecium 752 (VRE, Van A); test: MIC by broth microdilution, EFcm 752; details: class symbols
Experimental: as §1

[10] = test system: Streptococcus pneumoniae 1195 (ATCC 49619); test: MIC by broth microdilution, SPNE 1195
Experimental: as §1

[11] = test system: Streptococcus pyogenes 712; test: MIC by broth microdilution, SPY 712
Experimental: as §1

[12] = ATCC29213, Staphylococcus aureus 100 (ATCC 29213), class symbols, read-out: MIC SA 100
[13] = Staphylococcus aureus 757 (MRSA), class symbols
[14] = Staphylococcus aureus 2012 (VISA), read-out: MIC SA 2012
[15] = Staphylococcus epidermidis 835, class symbols, read-out: MIC SE 835
[16] = Staphylococcus epidermidis 831 (MRSE), class symbols
[17] = ATCC29212, Enterococcus faecalis 101 (ATCC 29212), read-out: MIC E FC 101
[18] = Enterococcus faecalis 848 (VRE, Van A), read-out: MIC E FC 848
[19] = Enterococcus faecium 800, class symbols, read-out: MIC E FCM 800
[20] = Enterococcus faecium 752 (VRE, Van A), read-out: MIC E FCM 752
[21] = ATCC49619, Streptococcus pneumoniae 1195 (ATCC 49619), class symbols, read-out: MIC S PNE 1195
[22] = Streptococcus pyogenes 712, class symbols, read-out: MIC S PYO 712
[23] = Staphylococcus aureus, ATCC29213, read-out: MIC SA 100
[24] = Staphylococcus aureus, VISA, read-out: MIC SA 2012, Staphylococcus aureus 2012 (VISA)
[25] = Staphylococcus epidermidis, 835, read-out: MIC SE 835
[26] = Staphylococcus epidermidis, MRSE
[27] = Enterococcus faecalis, ATCC29212, read-out: MIC E FC 101, Enterococcus faecalis 101 (ATCC 29212)
[28] = Enterococcus faecalis, VRE, read-out: MIC E FC 848, Enterococcus faecalis 848 (VRE, Van A)
[29] = Enterococcus faecium, 800, read-out: MIC E FCM 800
[30] = Enterococcus faecium, VRE, read-out: MIC E FCM 752, Enterococcus faecium 752 (VRE, Van A)
[31] = Streptococcus pneumoniae, ATCC49619, read-out: MIC S PNE 1195
[32] = Streptococcus pyogenes, 712, read-out: MIC S PYO 712

## CCCCCCc1ccc(S(=O)(=O)NCCCCCCNCc2c(O)cc3c(c2O)-c2cc(ccc2O)[C@H]2NC(=O)[C@@H]4NC(=O)[C@H](CC(N)=O)NC(=O)[C@H](NC(=O)[C@@H](CC(C)C)NC)[C@H](O)c5ccc(c(Cl)c5)Oc5cc4cc(c5O[C@@H]4O[C@H](CO)[C@@H](O)[C@H](O)[C@H]4O[C@H]4C[C@]5(C)NC(=O)O[C@@H]5[C@H](C)O4)Oc4ccc(cc4Cl)[C@@H](O)[C@H](NC2=O)C(=O)N[C@@H]3C(=O)O)cc1 (atropisomer, axis not shown) [Compound 305]
[1]; [12]
  MIC: 0.01 to 0.5 µg/mL (≈ 0.00547 to 0.274 µM)
[2]; [13]
  MIC: 0.01 to 0.5 µg/mL (≈ 0.00547 to 0.274 µM)
[3]; [14]
  MIC: 0.01 to 0.5 µg/mL (≈ 0.00547 to 0.274 µM)
[4]; [15]
  MIC: 0.01 to 0.5 µg/mL (≈ 0.00547 to 0.274 µM)
[5]; [16]
  MIC: 0.01 to 0.5 µg/mL (≈ 0.00547 to 0.274 µM)
[6]; [17]
  MIC: 0.01 to 0.5 µg/mL (≈ 0.00547 to 0.274 µM)
[7]; [18]
  MIC: 8 to 16 µg/mL (≈ 4.38 to 8.75 µM)
[8]; [19]
  MIC: 0.01 to 0.5 µg/mL (≈ 0.00547 to 0.274 µM)
[9]; [20]
  MIC: 1 to 2 µg/mL (≈ 0.547 to 1.09 µM)
[10]; [21]
  MIC: 0.01 to 0.5 µg/mL (≈ 0.00547 to 0.274 µM)
[11]; [22]
  MIC: 0.01 to 0.5 µg/mL (≈ 0.00547 to 0.274 µM)

## CCCCCCc1ccc(S(=O)(=O)NCCOCCNCc2c(O)cc3c(c2O)-c2cc(ccc2O)[C@H]2NC(=O)[C@@H]4NC(=O)[C@H](CC(N)=O)NC(=O)[C@H](NC(=O)[C@@H](CC(C)C)NC)[C@H](O)c5ccc(c(Cl)c5)Oc5cc4cc(c5O[C@@H]4O[C@H](CO)[C@@H](O)[C@H](O)[C@H]4O[C@H]4C[C@]5(C)NC(=O)O[C@@H]5[C@H](C)O4)Oc4ccc(cc4Cl)[C@@H](O)[C@H](NC2=O)C(=O)N[C@@H]3C(=O)O)cc1 (atropisomer, axis not shown) [Compound 308]
[1]; [12]
  MIC: 0.01 to 0.5 µg/mL (≈ 0.00551 to 0.275 µM)
[2]; [13]
  MIC: 0.01 to 0.5 µg/mL (≈ 0.00551 to 0.275 µM)
[3]; [14]
  MIC: 0.5 to 1 µg/mL (≈ 0.275 to 0.551 µM)
[4]; [15]
  MIC: 0.01 to 0.5 µg/mL (≈ 0.00551 to 0.275 µM)
[5]; [16]
  MIC: 0.01 to 0.5 µg/mL (≈ 0.00551 to 0.275 µM)
[6]; [17]
  MIC: 0.01 to 0.5 µg/mL (≈ 0.00551 to 0.275 µM)
[7]; [18]
  MIC: > 16 µg/mL
[8]; [19]
  MIC: 0.01 to 0.5 µg/mL (≈ 0.00551 to 0.275 µM)
[9]; [20]
  MIC: 4 to 8 µg/mL (≈ 2.2 to 4.41 µM)
[10]; [21]
  MIC: 0.01 to 0.5 µg/mL (≈ 0.00551 to 0.275 µM)
[11]; [22]
  MIC: 0.01 to 0.5 µg/mL (≈ 0.00551 to 0.275 µM)

## CCCCCOc1ccc(S(=O)(=O)NCCCCCCNC(=O)Oc2cc(O)c3c(c2)[C@@H](C(=O)O)NC(=O)[C@H]2NC(=O)[C@H](NC(=O)[C@@H]4NC(=O)[C@H](CC(N)=O)NC(=O)[C@H](NC(=O)[C@@H](CC(C)C)NC)[C@H](O)c5ccc(c(Cl)c5)Oc5cc4cc(c5O[C@@H]4O[C@H](CO)[C@@H](O)[C@H](O)[C@H]4O[C@H]4C[C@](C)(N)[C@H](O)[C@H](C)O4)Oc4ccc(cc4Cl)[C@H]2O)c2ccc(O)c-3c2)cc1 (atropisomer, axis not shown) [Compound 322]
[1]; [23]
  MIC: 0.01 to 0.5 µg/mL (≈ 0.0055 to 0.275 µM)
[2]; Staphylococcus aureus, MRSA
  MIC: 0.01 to 0.5 µg/mL (≈ 0.0055 to 0.275 µM)
[3]; [24]
  MIC: 1 to 2 µg/mL (≈ 0.55 to 1.1 µM)
[4]; [25]
  MIC: 0.01 to 0.5 µg/mL (≈ 0.0055 to 0.275 µM)
[5]; [26]
  MIC: 0.01 to 0.5 µg/mL (≈ 0.0055 to 0.275 µM)
[6]; [27]
  MIC: 0.01 to 0.5 µg/mL (≈ 0.0055 to 0.275 µM)
[7]; [28]
  MIC: 8 to 16 µg/mL (≈ 4.4 to 8.8 µM)
[8]; [29]
  MIC: 0.01 to 0.5 µg/mL (≈ 0.0055 to 0.275 µM)
[9]; [30]
  MIC: 2 to 4 µg/mL (≈ 1.1 to 2.2 µM)
[10]; [31]
  MIC: 0.01 to 0.5 µg/mL (≈ 0.0055 to 0.275 µM)
[11]; [32]
  MIC: 0.01 to 0.5 µg/mL (≈ 0.0055 to 0.275 µM)

## CCCOc1ccc(NC(=O)Oc2cc(O)c3c(c2)[C@@H](C(=O)O)NC(=O)[C@H]2NC(=O)[C@H](NC(=O)[C@@H]4NC(=O)[C@H](CC(N)=O)NC(=O)[C@H](NC(=O)[C@@H](CC(C)C)NC)[C@H](O)c5ccc(c(Cl)c5)Oc5cc4cc(c5O[C@@H]4O[C@H](CO)[C@@H](O)[C@H](O)[C@H]4O[C@H]4C[C@](C)(N)[C@H](O)[C@H](C)O4)Oc4ccc(cc4Cl)[C@H]2O)c2ccc(O)c-3c2)cc1 (atropisomer, axis not shown) [Compound 329]
[1]; [23]
  MIC: 1 to 2 µg/mL (≈ 0.615 to 1.23 µM)
[2]; Staphylococcus aureus, MRSA
  MIC: 0.5 to 1 µg/mL (≈ 0.307 to 0.615 µM)
[3]; [24]
  MIC: 8 to 16 µg/mL (≈ 4.92 to 9.84 µM)
[4]; [25]
  MIC: 2 to 4 µg/mL (≈ 1.23 to 2.46 µM)
[5]; [26]
  MIC: 2 to 4 µg/mL (≈ 1.23 to 2.46 µM)
[6]; [27]
  MIC: 0.5 to 1 µg/mL (≈ 0.307 to 0.615 µM)
[7]; [28]
  MIC: > 16 µg/mL
[8]; [29]
  MIC: 0.5 to 1 µg/mL (≈ 0.307 to 0.615 µM)
[9]; [30]
  MIC: > 16 µg/mL
[10]; [31]
  MIC: 0.01 to 0.5 µg/mL (≈ 0.00615 to 0.307 µM)
[11]; [32]
  MIC: 0.01 to 0.5 µg/mL (≈ 0.00615 to 0.307 µM)
